Experiments:
HEK293 cells = type: cell-based, human; conditions: for IFN induction by HIV-1-GFP from inhibitor-treated cGAS-reconstituted producer cells: 20 μM GW4869 or 60 μM Ac-DEVD-CHO during virus preparation; for IFN response in target cells in the presence of inhibitor: HEK293 cells infected with HIV-1-GFP from cGAS expressing cells, inhibitor 5 μM 1 hour prior to infection
IFNβ promoter reporter = type: cell-based, human; conditions: HEK293 cells transfected with 2 μg 2′-3′-cGAMP, 24 hours

| Compound | IFN induction by HIV-1-GFP from inhibitor-treated cGAS-reconstituted producer cells (HEK293 cells) | IFN response in target cells in the presence of inhibitor (HEK293 cells) | also measured |
| --- | --- | --- | --- |
| O=C(/C=C/c1ccc(/C=C/C(=O)Nc2ccc(C3=NCCN3)cc2)cc1)Nc1ccc(C2=NCCN2)cc1 [GW4869] | did not diminish IFN induction | – | – |
| Nc1nc2c(ncn2[C@@H]2O[C@@H]3COP(=O)(O)O[C@H]4[C@@H](O)[C@H](n5cnc6c(N)ncnc65)O[C@@H]4COP(=O)(O)O[C@@H]2[C@@H]3O)c(=O)[nH]1 [cGAMP, 2′-3′-cyclic GMP-AMP] | – | – | IFN induction in response to cGAMP (IFNβ promoter reporter) (IFNβ promoter reporter): induce IFN |
| Cc1ccnc2c1NC(=O)c1cccnc1N2C1CC1 [nevirapine] | – | independent | – |
| Cc1nnc(C(=O)NC(C)(C)c2nc(C(=O)NCc3ccc(F)cc3)c(O)c(=O)n2C)o1 [raltegravir] | – | independent | – |
| Ac-DEVD-CHO | did not diminish IFN induction | – | – |
